From patent publication US11180494B2, “Substituted amino acids as integrin inhibitors” (Pliant Therapeutics, Inc., priority 2018, dated 2021)

biological target: human integrin αvβ6 (Homo sapiens (Human), UniProt P06756+P18564); assay: Proximity-based integrin receptor binding assay (ALPHASCREEN) for inhibitor potency; details: inhibition of binding of TGF-b1 LAP to human integrin αvβ6; values given in ranges
Method in brief: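 AlphaScreen: integrin, compound, TGF-b1 LAP, biotinylated anti-LAP antibody and acceptor beads incubated 2 hours, then streptavidin donor beads 30 minutes, at room temperature in 50 mM Tris-HCl pH 7.5, 0.1% BSA, 1 mM CaCl2 and MgCl2. Excitation 680 nm, emission 520-620 nm; IC50 by four-parameter logistic fit.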

human integrin αvβ6, sequence (P06756 31-992): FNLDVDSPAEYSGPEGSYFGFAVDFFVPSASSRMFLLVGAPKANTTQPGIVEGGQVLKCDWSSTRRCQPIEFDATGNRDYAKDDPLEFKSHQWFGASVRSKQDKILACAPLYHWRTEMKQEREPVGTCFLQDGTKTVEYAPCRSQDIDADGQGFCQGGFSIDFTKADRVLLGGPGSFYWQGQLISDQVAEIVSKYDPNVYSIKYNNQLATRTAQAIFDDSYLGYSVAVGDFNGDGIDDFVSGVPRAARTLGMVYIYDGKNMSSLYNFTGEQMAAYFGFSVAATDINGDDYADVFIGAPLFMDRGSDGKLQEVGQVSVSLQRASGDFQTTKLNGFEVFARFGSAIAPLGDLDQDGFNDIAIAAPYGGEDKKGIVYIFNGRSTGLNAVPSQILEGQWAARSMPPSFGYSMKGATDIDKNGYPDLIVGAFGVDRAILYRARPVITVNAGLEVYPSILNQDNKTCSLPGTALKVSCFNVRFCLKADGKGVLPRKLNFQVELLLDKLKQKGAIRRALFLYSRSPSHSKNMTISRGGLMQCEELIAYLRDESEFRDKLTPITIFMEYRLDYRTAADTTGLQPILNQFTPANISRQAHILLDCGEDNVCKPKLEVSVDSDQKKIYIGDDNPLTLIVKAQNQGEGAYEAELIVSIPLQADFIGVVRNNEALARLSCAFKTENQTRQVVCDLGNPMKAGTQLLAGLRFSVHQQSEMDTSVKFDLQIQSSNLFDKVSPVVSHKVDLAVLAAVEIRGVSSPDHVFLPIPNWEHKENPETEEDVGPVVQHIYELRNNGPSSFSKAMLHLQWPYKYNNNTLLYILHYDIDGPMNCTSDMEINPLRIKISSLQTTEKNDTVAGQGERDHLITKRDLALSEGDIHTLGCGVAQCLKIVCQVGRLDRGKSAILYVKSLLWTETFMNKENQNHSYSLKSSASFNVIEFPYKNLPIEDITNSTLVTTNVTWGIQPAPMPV
human integrin αvβ6, sequence (P18564 22-707): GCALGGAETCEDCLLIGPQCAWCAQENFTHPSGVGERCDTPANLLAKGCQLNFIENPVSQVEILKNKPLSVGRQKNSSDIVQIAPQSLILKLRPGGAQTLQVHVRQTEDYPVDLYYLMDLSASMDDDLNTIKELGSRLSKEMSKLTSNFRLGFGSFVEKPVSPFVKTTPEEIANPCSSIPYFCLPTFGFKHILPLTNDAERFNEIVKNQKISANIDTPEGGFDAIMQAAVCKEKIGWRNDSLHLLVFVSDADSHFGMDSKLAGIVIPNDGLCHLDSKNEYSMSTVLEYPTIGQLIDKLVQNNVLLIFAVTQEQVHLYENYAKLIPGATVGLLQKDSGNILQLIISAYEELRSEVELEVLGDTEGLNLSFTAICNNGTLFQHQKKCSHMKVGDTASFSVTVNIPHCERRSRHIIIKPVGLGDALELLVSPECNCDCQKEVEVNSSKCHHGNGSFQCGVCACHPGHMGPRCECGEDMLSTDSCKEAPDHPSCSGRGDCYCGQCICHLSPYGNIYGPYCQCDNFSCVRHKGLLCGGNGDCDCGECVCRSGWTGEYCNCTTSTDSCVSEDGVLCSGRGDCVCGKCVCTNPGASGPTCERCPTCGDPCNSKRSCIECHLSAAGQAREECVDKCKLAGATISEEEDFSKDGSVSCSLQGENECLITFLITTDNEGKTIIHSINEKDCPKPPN

Compound	IC50 [µM]
CC(C)(C)c1ccc(C2(C(=O)N[C@@H](CCO[C@H]3C[C@H](CCc4ccc5c(n4)NCCC5)C3)C(=O)O)CCC2)cc1 [Compound 190, N-(1-(4-(tert-butyl)phenyl)cyclobutane-1-carbonyl)-O-(trans-3-(2-(5,6,7,8-tetrahydro-1,8-naphthyridin-2-yl)ethyl)cyclobutyl)homoserine]	< 0.05
Cc1cncc(Cl)c1C(=O)N[C@@H](CCO[C@H]1C[C@@H](CCc2ccc3c(n2)NCCC3)C1)C(=O)O [Compound 199, N-(3-chloro-5-methylisonicotinoyl)-O-(cis-3-(2-(5,6,7,8-tetrahydro-1,8-naphthyridin-2-yl)ethyl)cyclobutyl)homoserine]	0.05 to 0.25
CC(C)(C)OC(=O)NC(CCO[C@H]1C[C@H](CCc2ccc3c(n2)NCCC3)C1)C(=O)O (stereo partly drawn) [Example 12A, N-(tert-butoxycarbonyl)-O-(trans-3-(2-(5,6,7,8-tetrahydro-1,8-naphthyridin-2-yl)ethyl)cyclobutyl)homoserine]	0.05 to 0.25
O=C(O)[C@H](CCO[C@H]1C[C@H](CCc2ccc3c(n2)NCCC3)C1)Nc1ncnc2ccccc12 [Example 224, N-(quinazolin-4-yl)-O-(trans-3-(2-(5,6,7,8-tetrahydro-1,8-naphthyridin-2-yl)ethyl)cyclobutyl)homoserine]	< 0.05
CC(C)(C)c1nccc(N[C@@H](CCO[C@H]2C[C@H](CCc3ccc4c(n3)NCCC4)C2)C(=O)O)n1 [Example 225, N-(2-(tert-butyl)pyrimidin-4-yl)-O-(trans-3-(2-(5,6,7,8-tetrahydro-1,8-naphthyridin-2-yl)ethyl)cyclobutyl)homoserine]	0.25 to 1
CC(C)(C)c1ccnc(N[C@@H](CCO[C@H]2C[C@H](CCc3ccc4c(n3)NCCC4)C2)C(=O)O)n1 [Example 226, N-(4-(tert-butyl)pyrimidin-2-yl)-O-(trans-3-(2-(5,6,7,8-tetrahydro-1,8-naphthyridin-2-yl)ethyl)cyclobutyl)homoserine]	0.25 to 1
O=C(O)C(CCO[C@H]1C[C@H](CCc2ccc3cccnc3n2)C1)Nc1ncnc2ccccc12 (stereo partly drawn) [Example 227, O-(trans-3-(2-(1,8-naphthyridin-2-yl)ethyl)cyclobutyl)-N-(quinazolin-4-yl)homoserine]	0.25 to 1
O=C(O)C(CCO[C@H]1C[C@H](CCc2ccc3cccnc3n2)C1)Nc1ncnc2ccccc12 (stereo partly drawn) [Example 228, O-(trans-3-(2-(1,8-naphthyridin-2-yl)ethyl)cyclobutyl)-N-(quinazolin-4-yl)homoserine]	< 0.05
CC(C)(C)c1cc(N[C@@H](CCO[C@H]2C[C@H](CCc3ccc4c(n3)NCCC4)C2)C(=O)O)ncn1 [Example 229, N-(6-(tert-butyl)pyrimidin-4-yl)-O-(trans-3-(2-(5,6,7,8-tetrahydro-1,8-naphthyridin-2-yl)ethyl)cyclobutyl)homoserine]	0.05 to 0.25
N-isonicotinoyl-O-(trans-3-(2-(5,6,7,8-tetrahydro-1,8-naphthyridin-2-yl)ethyl)cyclobutyl)-D-homoserine [Compound 58]	> 1
N—((R)-2-hydroxy-2-phenylacetyl)-O-(4-(5,6,7,8-tetrahydro-1,8-naphthyridin-2-yl)butyl)-D-homoserine [Compound 77]	> 1
